Measurements published in ChEMBL document CHEMBL3808345, “Discovery of triazolopyridine GS-458967, a late sodium current inhibitor (Late INai) of the cardiac NaV 1.5 channel with improved efficacy and potency relative to ranolazine” (Bioorg Med Chem Lett, 2016).
In brackets after ≈: the same amount, converted by molar mass.

Legend:
[1] = Clearance in iv dosed rat; format: ADME, organism-based; conditions: in vivo
[2] = Clearance in iv dosed cynomolgus monkey; format: ADME, organism-based, Macaca fascicularis; conditions: in vivo
[3] = Oral bioavailability in rat; format: ADME, organism-based; conditions: in vivo
[4] = Oral bioavailability in cynomolgus monkey; format: ADME, organism-based, Macaca fascicularis; conditions: in vivo
[5] = Lipophilicity, logD of the compound; format: physicochemical; conditions: octanol/water
[6] = Aqueous solubility of the compound in HCL at pH 2.2; format: physicochemical
[7] = Aqueous solubility of the compound in PBS at pH 7.6; format: physicochemical
[8] = Stability in human liver microsomes; format: ADME
[9] = Stability in rat liver microsomes; format: ADME
[10] = Stability in dog liver microsomes; format: ADME, Canis lupus familiaris
[11] = Permeability from apical to basolateral side in human Caco2 cells at 1 uM; format: ADME, cell-based; conditions: Caco-2, read-out: permeability
[12] = Permeability from apical to basolateral side in human Caco2 cells at 10 uM; format: ADME, cell-based; conditions: Caco-2, read-out: permeability
[13] = Permeability from basolateral to apical side in human Caco2 cells at 1 uM; format: ADME, cell-based; conditions: Caco-2, read-out: permeability
[14] = Permeability from basolateral to apical side in human Caco2 cells at 10 uM; format: ADME, cell-based; conditions: Caco-2, read-out: permeability
[15] = AUC (0 to infinity) in po dosed rat; format: ADME, organism-based; design: time infinity, route oral; conditions: in vivo
[16] = AUC (0 to infinity) in po dosed cynomolgus monkey; format: ADME, organism-based, Macaca fascicularis; design: time infinity, route oral; conditions: in vivo
[17] = Cmax in po dosed rat; format: ADME, organism-based; design: route oral; conditions: in vivo
[18] = Cmax in po dosed cynomolgus monkey; format: ADME, organism-based, Macaca fascicularis; design: route oral; conditions: in vivo
[19] = Tmax in po dosed rat; format: ADME, organism-based; conditions: in vivo
[20] = Tmax in po dosed cynomolgus monkey; format: ADME, organism-based, Macaca fascicularis; conditions: in vivo
[21] = Volume of distribution at steady state in iv dosed rat; format: ADME, organism-based; conditions: in vivo, read-out: Vdss
[22] = Volume of distribution at steady state in iv dosed cynomolgus monkey; format: ADME, organism-based, Macaca fascicularis; conditions: in vivo, read-out: Vdss

In the case of FC(F)(F)Oc1ccc(-c2ccc3nnc(C(F)(F)F)n3c2)cc1, the clearance [1] is reported as 3.22 mL/min/kg, the clearance [2] is reported as 0.217 mL/min/kg and the bioavailability [3] is reported as 105%. It also gave a bioavailability [4] of 83%, a logD [5] of 3.38 and a solubility [6] of 6 µM (≈ 2.08 µg/mL). For the same compound, the solubility [7] was 4.7 µM (≈ 1.63 µg/mL), the half-life [8] was > 6.58 h and the half-life [9] was 3.82 h. It also gave a half-life [10] of 1.17 h, a Papp A→B at 1 µM [11] of 41.2 ×10⁻⁶ cm/s and a Papp A→B at 10 µM [12] of 27.9 ×10⁻⁶ cm/s. The Papp B→A at 1 µM [13] was 44 ×10⁻⁶ cm/s, the Papp B→A at 10 µM [14] was 35.2 ×10⁻⁶ cm/s and the AUC(0-inf) [15] was 5.7 µM·h. It also gave an AUC(0-inf) [16] of 76.1 µM·h, a Cmax [17] of 397 nM and a Cmax [18] of 1480 nM. For the same compound, the Tmax [19] was 2.7 h, the Tmax [20] was 6 h and the Vd [21] was 3.4 L. For the same compound, the Vd [22] was 0.6 L.
